# Measurements reported in US9078871B2, “Estrogen receptor modulators and uses thereof” (SERAGON PHARMACEUTICALS, INC., priority 2010, dated 2015).
# Assays:
# MCF-7 tumors = assay: Xenograft Assay (MCF-7 Derivative), tamoxifen treatment of MCF-7 tumors; type: in vivo; settings: female nu/nu mice with 17-β estradiol pellets bearing MCF-7 tumors, oral gavage
# Procedure: Female nu/nu mice (with supplemental 17-P3 Estradiol pellets; 0.72 mg; 60 day slow release) bearing MCF-7 tumors (mean tumor volume 200 mm^3) were treated with Tamoxifen (citrate) by oral gavage. Tumor volume (length×width^2/2) and body weight were monitored twice weekly. […] At 120 days of treatment, tamoxifen dose was increased. Rapidly growing tumors were deemed tamoxifen resistant and selected for in vivo passage into new host animals. Tumor Fragments (˜100 mm^3/animal) from the tamoxifen resistant tumors were subcutaneously implanted into the right flank of female nu/nu mice (with 17-P3 Estradiol pellets (0.72 mg; 60 day slow release)). Passaged tumors were maintained under constant Tamoxifen selection and Tumor volume (length×width^2/2) monitored weekly. When tumor volume reached ˜150-250 mm^3, animals were randomized into treatment groups (mean tumor volume 200 mm^3) and tamoxifen treatment was terminated (except for a tamoxifen control arm). Animals were treated with Vehicle or test compound daily for 4 weeks. Tumor volume and body weight were monitored twice weekly for the duration of the study. At the conclusion of the treatment period; plasma and tumor samples were taken for pharmacokinetic and pharmacodynamic analyses, respectively.
# MCF-7 cells = assay: Breast Cancer Cell Viability Assay (MCF7 Viability Assay); type: cell-based; settings: 5 days' compound exposure, CellTiter-Glo; for IC50: Homo sapiens, MCF7, 120 h
# In short: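 MCF-7 cells, 320 per well in RPMI with 10% FBS and 20 mM HEPES, adhered overnight, then exposed 5 days to an eleven-point semilog dilution (final 0.3–0.000003 μM). CellTiter-Glo luminescence; % viability relative to untreated cells after subtracting cell-free background.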
# ER-α [1] = target: T1, ER-α (Homo sapiens, UniProt P03372); assay: ER-α In Cell Western Assay (ER1D5); type: cell-based; settings: MCF-7 cells, ER1D5 antibody, 4 or 24 hr post compound addition, read-out: ER In-Cell Western Assay (ER1D5); for Emax: MCF7, Max Response; for DC50: IC50
# T1 construct: endogenous in cells; host or cells: MCF-7
# T1 sequence (P03372 1-595): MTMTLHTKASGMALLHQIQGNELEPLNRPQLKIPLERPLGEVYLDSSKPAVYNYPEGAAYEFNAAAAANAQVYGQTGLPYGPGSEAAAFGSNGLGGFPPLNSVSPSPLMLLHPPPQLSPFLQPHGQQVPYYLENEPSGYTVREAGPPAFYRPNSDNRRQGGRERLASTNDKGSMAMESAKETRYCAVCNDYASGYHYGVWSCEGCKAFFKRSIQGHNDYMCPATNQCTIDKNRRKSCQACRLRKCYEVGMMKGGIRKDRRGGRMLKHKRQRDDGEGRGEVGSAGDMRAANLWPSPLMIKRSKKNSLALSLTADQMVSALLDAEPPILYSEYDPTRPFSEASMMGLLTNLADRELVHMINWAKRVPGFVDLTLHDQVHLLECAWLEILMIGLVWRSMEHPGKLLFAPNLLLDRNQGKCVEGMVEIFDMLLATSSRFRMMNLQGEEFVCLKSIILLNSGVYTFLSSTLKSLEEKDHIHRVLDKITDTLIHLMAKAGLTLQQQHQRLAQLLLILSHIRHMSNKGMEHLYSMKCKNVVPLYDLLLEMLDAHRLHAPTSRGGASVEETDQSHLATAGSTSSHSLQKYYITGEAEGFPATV
# In short: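 MCF-7 cells in RPMI with 10% charcoal-stripped FBS treated with 11-point semilog series (0.3–0.000003 μM final) for 4 or 24 h. Fixed cells stained with ER1D5 plus IRDye 800CW secondary and DRAQ5; ER level = 800/700 nm intensity ratio as % of untreated cells.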
# ER-α [2] = target: T1, ER-α; assay: ER-α in Cell Western Assay (SP1); type: cell-based; settings: MCF-7 cells, SP1 rabbit monoclonal Ab, 4 or 24 hr post compound addition, read-out: ER In-Cell Western Assay (SP1); for Emax: MCF7, Max Response; for DC50: IC50
# In short: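 MCF-7 cells in charcoal-stripped FBS medium treated with 11-point semilog dilutions (0.3–0.000003 μM final) for 4 or 24 hr, then fixed and immunostained with SP1 anti-ER antibody. ER signal (800 nm) normalized to DRAQ5 DNA signal (700 nm) and expressed as % of untreated cells.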
Compound,anti-tumor response (tumor volume) (MCF-7 tumors),time at which evident tumor growth was first observed (MCF-7 tumors),MCF7 Viability Assay Max Response (MCF-7 cells),IC50 (MCF-7 cells),Emax (ER-α [1]),DC50 (ER-α [1]),Emax (ER-α [2]),DC50 (ER-α [2])
"CC/C(=C(\c1ccccc1)c1ccc(OCCN(C)C)cc1)c1ccccc1 [Tamoxifen, tamoxifen]",tumor volume remained static,approximately 100 days of treatment,,,,,,
"CC1=C(c2cccc(O)c2)C(c2ccc(OCCN3CC[C@H](C)C3)cc2)Oc2ccc(O)cc21 (stereo partly drawn) [Example 11, 3-(3-Hydroxyphenyl)-4-methyl-2-(4-(2-((S)-3-methylpyrrolidin-1-yl)ethoxy)phenyl)-2H-chromen-6-ol]",,,++ (++ = a single % value ≧50%),≤ 1 nM,40 to 65%,≤ 1 nM,60 to 85%,≤ 1 nM
"CC1=C(c2cccc(O)c2)C(c2ccc(OC[C@@H](C)N3CCCC3)cc2)Oc2ccc(O)cc21 (stereo partly drawn) [Example 7, 3-(3-Hydroxyphenyl)-4-methyl-2-(4-((R)-2-(pyrrolidin-1-yl)propoxy)phenyl)-2H-chromen-6-ol]",,,+ (+ = a single % value <50%),≤ 1 nM,< 40%,> 1 nM,< 60%,≤ 1 nM
"CC1=C(c2cccc(O)c2)C(c2ccc(OC[C@H](C)N3CC[C@@H](C)C3)cc2)Oc2ccc(O)cc21 (mixture of isomers) [Example 2, 3-(3-Hydroxyphenyl)-4-methyl-2-(4-((S)-2-((R)-3-methylpyrrolidin-1-yl)propoxy)phenyl)-2H-chromen-6-ol]",,,++ (++ = a single % value ≧50%),≤ 1 nM,≥ 65%,≤ 1 nM,≥ 85%,≤ 1 nM
"CC1=C(c2cccc(O)c2)C(c2ccc(OCCN3CCCC3)cc2)Oc2ccc(O)cc21 (centres unmarked) [Example 36, 3-(3-Hydroxyphenyl)-4-methyl-2-(4-(2-(pyrrolidin-1-yl)ethoxy)phenyl)-2H-chromen-6-ol]",,,++ (++ = a single % value ≧50%),≤ 1 nM,40 to 65%,≤ 1 nM,60 to 85%,≤ 1 nM
